According to patent US7265152B2 (ViroPharma Incorporated, priority 2002, dated 2007):
Read-outs that look alike come from different tables or passages of the source.

Experiments:
[1] = system: HCV replicon (BB7 sequence) in Huh-7-Clone A cells; experiment: HCV replicon assay: ELISA of NS5A protein in replicon-containing cells (Inhibition of Viral RNA Replication); type: cell-based; details: Hepatitis C virus, HCV replicon assay, read-out: Replicon
Summary of the method: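 EC50 taken from an 8-point serially diluted dose curve, with NS5A level as read-out: fixed cells probed with primary monoclonal and HRP-conjugated secondary, TMB developed 30 min, OD 650 nm. Compound exposure 72 h in Huh-7-Clone A replicon cells (BB7 sequence).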

HCV NS5B = biological target: T1, HCV NS5B (Hepatitis C virus genotype 1b, UniProt Q9WMX2); experiment: Inhibition of viral RNA-dependent RNA polymerase (RdRp), in vitro biochemical assay; set-up: species or system HCV genotype 1b virus (BB7); details: read-out: HCV pol-BB7 IC50
T1 construct: fusion protein, of which the carboxyl terminal 21 amino acids were removed to enhance its solubility; His tag (GSHHHHHH); made in house; host or cells: E. coli
Summary of the method: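 IC50 values are the concentrations that halve in vitro RNA synthesis by HCV NS5B polymerase. The enzyme was a C-terminally truncated (Δ21), His-tagged genotype 1b (BB7 consensus) protein purified from E. coli.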

[2] = HCV NS5B RdRp, BB7, activity class
[3] = ranges of 50% effective concentration (EC50)
[4] = HCV NS5B polymerase, BB7 (genotype 1b), values given as range classes A-D

SMILES	EC50 ([1]; ranges of EC50)	IC50 (HCV NS5B; [2])	EC50 [1, 3]	IC50 (HCV NS5B; [4])
CNC(=O)c1c(-c2ccc(F)cc2)oc2cc(N(C)S(C)(=O)=O)c(OCC(C)=O)cc12 [Example 369, 2-(4-Fluoro-phenyl)-6-(methanesulfonyl-methyl-amino)-5-(2-oxo-propoxy)-benzofuran-3-carboxylic acid methylamide]	< 1000 nM	≤ 500 nM	–	–
CNC(=O)c1c(-c2ccc(F)cc2)oc2cc(N(C)S(C)(=O)=O)c(OCC(C)O)cc12 (centres unmarked) [Example 370, 2-(4-Fluoro-phenyl)-5-(2-hydroxy-propoxy)-6-(methanesulfonyl-methyl-amino)-benzofuran-3-carboxylic acid methylamide]	< 1000 nM	≤ 500 nM	–	–
CNC(=O)c1c(-c2ccc(F)cc2)oc2cc(N(C)S(C)(=O)=O)c(OCc3nnnn3C)cc12 [Example 371, 2-(4-Fluoro-phenyl)-6-(methanesulfonyl-methyl-amino)-5-(1-methyl-1H-tetrazol-5-ylmethoxy)-benzofuran-3-carboxylic acid methylamide]	< 1000 nM	≤ 500 nM	–	–
CNC(=O)c1c(-c2ccc(F)cc2)oc2cc(-c3cc(COC(C)C)on3)c(OC)cc12 [Example 372, 2-(4-Fluoro-phenyl)-6-(5-isopropoxymethyl-isoxazol-3-yl)-5-methoxy-benzofuran-3-carboxylic acid methylamide]	< 1000 nM	≤ 500 nM	–	–
CCN(CC)c1nc(COc2cc3c(C(=O)NC)c(-c4ccc(F)cc4)oc3cc2N(C)S(C)(=O)=O)ns1 [Example 373, 5-(5-Diethylamino-[1,2,4]thiadiazol-3-ylmethoxy)-2-(4-fluoro-phenyl)-6-(methanesulfonyl-methyl-amino)-benzofuran-3-carboxylic acid methylamide]	< 1000 nM	≤ 500 nM	–	–
CNC(=O)c1c(-c2ccc(F)cc2)oc2cc(N(C)S(C)(=O)=O)c(OCc3nsc(NCC4CC4)n3)cc12 [Example 374, 5-[5-(Cyclopropylmethyl-amino)-[1,2,4]thiadiazol-3-ylmethoxy]-2-(4-fluoro-phenyl)-6-(methanesulfonyl-methyl-amino)-benzofuran-3-carboxylic acid methylamide]	< 1000 nM	≤ 500 nM	–	–
CNC(=O)c1c(-c2ccc(F)cc2)oc2cc(C(C)(O)CN)c(OC(C)C)cc12 (centres unmarked) [Example 375, 6-(2-Amino-1-hydroxy-1-methyl-ethyl)-2-(4-fluoro-phenyl)-5-isopropoxy-benzofuran-3-carboxylic acid methylamide]	< 30000 nM	500 to 5000 nM	–	–
CNC(=O)c1c(-c2ccc(F)cc2)oc2cc(C(C)(C)N)c(OC(C)C)cc12 [Example 376, 6-(1-Amino-1-methyl-ethyl)-2-(4-fluoro-phenyl)-5-isopropoxy-benzofuran-3-carboxylic acid methylamide]	< 1000 nM	≤ 500 nM	–	–
CNC(=O)c1c(-c2ccc(F)cc2)oc2cc(C3CCCN3C(=O)NC)c(OC)cc12 (centres unmarked) [Example 377, 2-[2-(4-Fluoro-phenyl)-5-methoxy-3-methylcarbamoyl-benzofuran-6-yl]-pyrrolidine-1-carboxylic acid methylamide]	< 10000 nM	≤ 500 nM	–	–
CCNC(=O)c1c(-c2ccc(F)cc2)oc2cc(-c3c(C)noc3C)c(OC)cc12 [Example 378, 6-(3,5-Dimethyl-isoxazol-4-yl)-2-(4-fluoro-phenyl)-5-methoxy-benzofuran-3-carboxylic acid ethylamide]	< 1000 nM	≤ 500 nM	–	–
COc1cc2c(C(=O)NC(C)C)c(-c3ccc(F)cc3)oc2cc1-c1c(C)noc1C [Example 379, 6-(3,5-Dimethyl-isoxazol-4-yl)-2-(4-fluoro-phenyl)-5-methoxy-benzofuran-3-carboxylic acid isopropylamide]	> 30000 nM	500 to 5000 nM	–	–
COc1cc2c(C(=O)NC3CC3)c(-c3ccc(F)cc3)oc2cc1-c1c(C)noc1C [Example 380, 6-(3,5-Dimethyl-isoxazol-4-yl)-2-(4-fluoro-phenyl)-5-methoxy-benzofuran-3-carboxylic acid cyclopropylamide]	< 1000 nM	≤ 500 nM	–	–
CNC(=O)c1c(-c2ccc(F)cc2)oc2cc(C3(C)CNC(=O)O3)c(OC(C)C)cc12 (centres unmarked) [Example 381, 2-(4-Fluoro-phenyl)-5-isopropoxy-6-(5-methyl-2-oxo-oxazolidin-5-yl)-benzofuran-3-carboxylic acid methylamide]	< 1000 nM	≤ 500 nM	–	–
CNC(=O)c1c(-c2ccc(F)cc2)oc2cc(N(C)S(C)(=O)=O)c(OCC(=O)OC(C)(C)C)cc12 [Example 382, [2-(4-Fluoro-phenyl)-6-(methanesulfonyl-methyl-amino)-3-methylcarbamoyl-benzofuran-5-yloxy]-acetic acid tert-butyl ester]	–	–	< 1000 nM	≤ 500 nM
CNC(=O)c1c(-c2ccc(F)cc2)oc2cc(-c3nc(C)n[nH]3)c(OC)cc12 [Example 383, 2-(4-Fluoro-phenyl)-5-methoxy-6-(5-methyl-2H-[1,2,4]triazol-3-yl)-benzofuran-3-carboxylic acid methylamide]	–	–	< 10000 nM	500 to 5000 nM
CNC(=O)c1c(-c2ccc(F)cc2)oc2cc(C(C)(C)N)c(OC)cc12 [Example 384, 6-(1-Amino-1-methyl-ethyl)-2-(4-fluoro-phenyl)-5-methoxy-benzofuran-3-carboxylic acid methylamide]	–	–	< 30000 nM	500 to 5000 nM
CNC(=O)c1c(-c2ccc(F)cc2)oc2cc(C(C)(C)NC(C)=O)c(OC)cc12 [Example 385, 6-(1-Acetylamino-1-methyl-ethyl)-2-(4-fluoro-phenyl)-5-methoxy-benzofuran-3-carboxylic acid methylamide]	–	–	< 1000 nM	≤ 500 nM
CNC(=O)c1c(-c2ccc(F)cc2)oc2cc(N(C)S(C)(=O)=O)c(OCC(=O)O)cc12 [Example 386, [2-(4-Fluoro-phenyl)-6-(methanesulfonyl-methyl-amino)-3-methylcarbamoyl-benzofuran-5-yloxy]-acetic acid]	–	–	< 30000 nM	≤ 500 nM
CNC(=O)c1c(-c2ccc(F)cc2)oc2cc(-c3nc(C)nn3C)c(OC)cc12 [Example 387, 6-(2,5-Dimethyl-2H-[1,2,4]triazol-3-yl)-2-(4-fluoro-phenyl)-5-methoxy-benzofuran-3-carboxylic acid methylamide]	–	–	< 10000 nM	500 to 5000 nM
CNC(=O)c1c(-c2ccc(F)cc2)oc2cc(N(C)S(C)(=O)=O)c(OCc3nccs3)cc12 [Example 388, 2-(4-Fluoro-phenyl)-6-(methanesulfonyl-methyl-amino)-5-(thiazol-2-ylmethoxy)-benzofuran-3-carboxylic acid methylamide]	–	–	< 1000 nM	≤ 500 nM
CNC(=O)c1c(-c2ccc(F)cc2)oc2cc(C3(C)NC(=O)NC3=O)c(OC)cc12 (centres unmarked) [Example 389, 2-(4-Fluoro-phenyl)-5-methoxy-6-(4-methyl-2,5-dioxo-imidazolidin-4-yl)-benzofuran-3-carboxylic acid methylamide]	–	–	< 10000 nM	≤ 500 nM
CNC(=O)c1c(-c2ccc(F)cc2)oc2cc(C(C)(C)NS(C)(=O)=O)c(OC)cc12 [Example 390, 2-(4-Fluoro-phenyl)-6-(1-methanesulfonylamino-1-methyl-ethyl)-5-methoxy-benzofuran-3-carboxylic acid methylamide]	–	–	< 10000 nM	≤ 500 nM
CNC(=O)c1c(-c2ccc(F)cc2)oc2cc(N(Cc3cccc(CBr)n3)S(C)(=O)=O)c(OCc3cccc(CBr)n3)cc12 [Example 391, 5-(6-Bromomethyl-pyridin-2-ylmethoxy)-6-[(6-bromomethyl-pyridin-2-ylmethyl)-methanesulfonyl-amino] 2-(4-fluoro-phenyl)-benzofuran-3-carboxylic acid methylamide]	–	–	< 10000 nM	≤ 500 nM
CCOC(=O)c1csc(COc2cc3c(C(=O)NC)c(-c4ccc(F)cc4)oc3cc2N(C)S(C)(=O)=O)n1 [Example 392, 2-[2-(4-Fluoro-phenyl)-6-(methanesulfonyl-methyl-amino)-3-methylcarbamoyl-benzofuran-5-yloxymethyl]-thiazole-4-carboxylic acid ethyl ester]	–	–	< 1000 nM	≤ 500 nM
CNC(=O)c1c(-c2ccc(F)cc2)oc2cc(N(C)S(C)(=O)=O)c(OCc3nc(C(=O)O)cs3)cc12 [Example 393, 2-[2-(4-Fluoro-phenyl)-6-(methanesulfonyl-methyl-amino)-3-methylcarbamoyl-benzofuran-5-yloxymethyl]-thiazole-4-carboxylic acid]	–	–	> 30000 nM	≤ 500 nM
CNC(=O)c1c(-c2ccc(F)cc2)oc2cc(N(C)C)c(OC)cc12 [Example 394, 6-Dimethylamino-2-(4-fluoro-phenyl)-5-methoxy-benzofuran-3-carboxylic acid methylamide]	–	–	< 1000 nM	≤ 500 nM
CNC(=O)c1c(-c2ccc(F)cc2)oc2cc(N(C)S(C)(=O)=O)c(OCC#N)cc12 [Example 395, 5-Cyanomethoxy-2-(4-fluoro-phenyl)-6-(methanesulfonyl-methyl-amino)-benzofuran-3-carboxylic acid methylamide]	–	–	< 1000 nM	≤ 500 nM
CNC(=O)c1c(-c2ccc(F)cc2)oc2cc(N(C)S(C)(=O)=O)c(OCc3cc(C)on3)cc12 [Example 396, 2-(4-Fluoro-phenyl)-6-(methanesulfonyl-methyl-amino)-5-(5-methyl-isoxazol-3-ylmethoxy)-benzofuran-3-carboxylic acid methylamide]	–	–	< 1000 nM	≤ 500 nM
